# In patent publication US20240230620A1, “CURRENT AND […]” (National Taiwan University, priority 2023, published 2024):
# Read-outs that look alike come from different tables or passages of the source.
# Columns and labels:
# Gα subunit = conditions: fluorescence
# Protocol: The intrinsic tryptophan in the switch-II region serves as a fluorescent probe for examining the activity of Ga subunit. In the AlF4^− dependent activation assay, the AlF4^− bound to GDP mimics the transition state of GTP hydrolysis, stimulating the conformational change of the switch-II region and enhancing the fluorescence quantum yields of intrinsic Trp. This principle was also applied to GDP/GTP auto-exchange, but it was conducted using of GTPγS, a non-hydrolyzable GTP analog. In the time-course of Trp fluorescence measurement, the excitation and emission wavelengths were 280 and 340 nm, respectively, and both slits are 10 nm. For AlF4^− dependent activation assay, 20 μL 20 μM Ga protein was first added into a cuvette filled with 1.5 mL buffer G without BME and PMSF at 50 s. Then 40 μL 500 mM NaF and 20 μL 10 mM AlCl3 were added simultaneously at 100 s. For GDP/GTP auto-exchange, the experiments were conducted as described above using 1 μM GTPγS instead of AlF4^−.
# The effectiveness of Gα inactivation using EDTA was analyzed by fluorescence (FIG. 23(A)).
# AtGPA1 [1] = molecular target: T1, AtGPA1 (Arabidopsis thaliana, UniProt P18064); test: GTPγS saturation binding analysis of AtGPA1 (photocurrent and fluorescence); conditions: percent of maximum fitted to a hyperbola, preliminary test
# T1 sequence (P18064 1-383): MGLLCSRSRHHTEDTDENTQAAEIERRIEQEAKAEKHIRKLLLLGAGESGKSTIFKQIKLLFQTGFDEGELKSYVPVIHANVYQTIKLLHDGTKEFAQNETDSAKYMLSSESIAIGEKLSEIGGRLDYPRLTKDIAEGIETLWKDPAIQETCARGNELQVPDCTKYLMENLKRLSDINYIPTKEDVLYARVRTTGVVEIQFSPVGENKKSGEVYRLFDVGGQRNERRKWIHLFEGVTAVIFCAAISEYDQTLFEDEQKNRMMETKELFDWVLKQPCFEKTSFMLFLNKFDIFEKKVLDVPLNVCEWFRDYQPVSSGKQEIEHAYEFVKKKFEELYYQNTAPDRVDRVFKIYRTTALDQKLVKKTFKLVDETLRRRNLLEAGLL
# Protocol: The photo-induced-voltage-generating solution chamber was filled with 20 mg/mL HEBR solution in the dual chamber format. The sample to be tested was added to the sample chamber at a volume of 100-150 μL. The photo-induced-voltage-generating solution chamber was illuminated by a 10-Hz, 532-nm flash laser (Nd-YAG laser, 6 ns pulse, pump energy 21 J) via a central control unit (Raspberry Pi 400) to generate the alternating photocurrent. The data recording system was identical to steady-state photocurrent measurement. Each data was collected at a single trigger event. The laser was triggered at 0 s and stopped at 40 s with each 5 s pre-trigger and post-illumination. Then, the raw data were recorded in a .csv file and processed by the Python code. The processed data were exported to an excel file for further analysis.
# After the successful measurement of the interaction of Gα with its ligand, the present device was extended to measure the KD of Gα and its ligands. In preliminary test, the plant Arabidopsis thaliana Gα AtGPA1 and a non-hydrolyzable GTP analog GTPγS were adopted. […] The AtGPA1 was purified and analyzed the activity using the identical method in mammalian Gα purification.
# Referring to FIG. 24, to calculate the KD of AtGPA1 and GTPγS, both photocurrent and fluorescence were measured. […]
# AtGPA1 [2] = molecular target: T1, AtGPA1; conditions: derived from radioactive GTPγS assay; read-out: KD of AtGPA1 and GTPγS, previous study; cited from earlier work
SMILES,Gα subunit inactivation (Gα subunit; 20 μM Gα subunit at 100 mM EDTA),reduction of Gα subunit activity (Gα subunit; 20 μM Gα subunit in 10 mM EDTA),Kd (AtGPA1 [1]) [nM],Kd (AtGPA1 [2]) [nM]
O=C(O)CN(CCN(CC(=O)O)CC(=O)O)CC(=O)O [EDTA],almost inactivated,more than 60%,–,–
Nc1nc2c(ncn2[C@@H]2O[C@H](COP(=O)(O)OP(=O)(O)OP(O)(O)=S)[C@@H](O)[C@H]2O)c(=O)[nH]1 [GTPγS],–,–,~1.5,0.8
